Structures can show the parent of a compound that is named as a salt.
Target: glucan synthase (GS) prepared from Candida albicans MY1055 (Candida albicans, UniProt O13428)
Test: Glucan synthase inhibition (polymerization assay, 96-well)
Type: biochemical
Settings: not given
How it was run: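 Partially purified glucan synthase from C. albicans MY1055 membranes incorporated 0.5 mM ³H-UDPG with 25 μM GTP-γ-S, HEPES pH 7.5, over 60 min at 22 °C. TCA-precipitated glucan was counted by scintillation. IC50 (ng/mL) came from sigmoidal fits of duplicate 3-fold dilution series.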

glucan synthase (GS) prepared from Candida albicans MY1055, sequence (O13428 1-1897): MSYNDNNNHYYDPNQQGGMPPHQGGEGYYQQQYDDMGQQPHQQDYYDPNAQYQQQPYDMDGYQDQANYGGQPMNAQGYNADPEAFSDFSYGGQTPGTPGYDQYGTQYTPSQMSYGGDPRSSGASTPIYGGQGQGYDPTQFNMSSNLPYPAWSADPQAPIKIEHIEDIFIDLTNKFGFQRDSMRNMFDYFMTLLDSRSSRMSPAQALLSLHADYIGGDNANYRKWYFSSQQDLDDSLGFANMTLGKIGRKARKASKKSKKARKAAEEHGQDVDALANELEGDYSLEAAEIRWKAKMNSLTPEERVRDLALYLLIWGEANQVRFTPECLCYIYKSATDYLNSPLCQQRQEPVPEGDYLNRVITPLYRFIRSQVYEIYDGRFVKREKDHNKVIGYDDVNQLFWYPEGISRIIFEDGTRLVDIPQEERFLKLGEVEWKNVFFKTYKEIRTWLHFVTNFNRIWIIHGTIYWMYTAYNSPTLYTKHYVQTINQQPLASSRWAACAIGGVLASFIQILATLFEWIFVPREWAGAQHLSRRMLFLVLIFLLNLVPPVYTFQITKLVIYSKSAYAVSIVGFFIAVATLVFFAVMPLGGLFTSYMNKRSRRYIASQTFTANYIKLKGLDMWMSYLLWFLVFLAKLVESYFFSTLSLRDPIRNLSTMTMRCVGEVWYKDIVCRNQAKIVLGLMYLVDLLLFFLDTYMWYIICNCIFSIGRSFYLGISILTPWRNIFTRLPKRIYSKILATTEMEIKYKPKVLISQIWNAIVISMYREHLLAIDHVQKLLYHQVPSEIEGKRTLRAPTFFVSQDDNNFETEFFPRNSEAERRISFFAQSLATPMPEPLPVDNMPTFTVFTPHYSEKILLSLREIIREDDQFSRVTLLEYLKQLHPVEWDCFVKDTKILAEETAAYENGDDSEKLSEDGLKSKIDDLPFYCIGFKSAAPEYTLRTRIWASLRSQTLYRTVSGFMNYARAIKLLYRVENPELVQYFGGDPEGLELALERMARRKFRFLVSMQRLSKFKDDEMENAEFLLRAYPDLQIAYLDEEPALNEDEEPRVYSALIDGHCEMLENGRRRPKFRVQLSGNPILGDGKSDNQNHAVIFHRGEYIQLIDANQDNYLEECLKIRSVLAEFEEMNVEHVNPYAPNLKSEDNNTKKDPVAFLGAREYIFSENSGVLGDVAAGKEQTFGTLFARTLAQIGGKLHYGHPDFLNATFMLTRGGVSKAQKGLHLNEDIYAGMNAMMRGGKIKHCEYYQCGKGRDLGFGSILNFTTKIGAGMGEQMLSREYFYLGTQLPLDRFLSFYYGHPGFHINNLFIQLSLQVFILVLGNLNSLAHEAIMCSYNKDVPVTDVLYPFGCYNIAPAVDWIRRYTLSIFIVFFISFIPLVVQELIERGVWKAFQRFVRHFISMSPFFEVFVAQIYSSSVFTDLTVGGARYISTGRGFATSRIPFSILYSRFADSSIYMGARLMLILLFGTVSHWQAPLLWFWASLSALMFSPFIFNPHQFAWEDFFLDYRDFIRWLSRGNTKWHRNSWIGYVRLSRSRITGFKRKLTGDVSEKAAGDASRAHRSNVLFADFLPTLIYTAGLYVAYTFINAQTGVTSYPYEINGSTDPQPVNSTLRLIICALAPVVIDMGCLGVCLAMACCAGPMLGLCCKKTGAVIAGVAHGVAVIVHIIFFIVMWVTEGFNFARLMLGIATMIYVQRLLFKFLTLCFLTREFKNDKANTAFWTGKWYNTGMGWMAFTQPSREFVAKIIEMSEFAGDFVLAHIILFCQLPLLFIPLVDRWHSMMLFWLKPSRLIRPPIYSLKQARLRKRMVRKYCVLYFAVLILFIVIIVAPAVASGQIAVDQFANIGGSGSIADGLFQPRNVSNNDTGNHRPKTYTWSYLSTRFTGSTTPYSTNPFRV

Structure (SMILES) | IC50
CC(C)[C@@H](C)[C@@]1(C)CC[C@]2(C)[C@H]3CC[C@@H]4[C@@]5(COC[C@@]4(C)[C@@H](OC[C@](C)(N)C(C)(C)C)[C@H](n4ncnc4-c4ccc[n+](C)c4)C5)C3=CC[C@@]2(C)[C@@H]1C(=O)O [Example 264, (1S,4aR,6aS,7R,8R,10aR,10bR,12aR,14R,15R)-15-[[(2R)-2-amino-2,3,3-trimethylbutyl]oxy]-8-[(1R)-1,2-dimethylpropyl]-14-[5-(1-methyl-3-pyridiniumyl)-1H-1,2,4-triazol-1-yl]-1,6,6a,7,8,9,10,10a,10b,11,12,12a-dodecahydro-1,6a,8,10a-tetramethyl-4H-1,4a-propano-2H-phenanthro[1,2-c]pyran-7-carboxylic acid trifluoroacetate] | 0.403 nM

Same assay, conditions: GS from C. albicans MY1055; 60 min incubation at 22° C.; read-out: Candida Albicans GS IC50 (converted)

Structure (SMILES) | IC50
CC(C)[C@@H](C)[C@@]1(C)CC[C@]2(C)[C@H]3CC[C@@H]4[C@@]5(COC[C@@]4(C)[C@@H](OC[C@](C)(N)C(C)(C)C)[C@H](n4ncnc4-c4ccc(C(=O)O)cc4)C5)C3=CC[C@@]2(C)[C@@H]1C(=O)O [Example 235, (1S,4aR,6aS,7R,8R,10aR,10bR,12aR,14R,15R)-15-[[(2R)-2-amino-2,3,3-trimethylbutyl]oxy]-14-[5-(4-carboxyphenyl)-1H-1,2,4-triazol-1-yl]-8-[(1R)-1,2-dimethylpropyl]-1,6,6a,7,8,9,10,10a,10b,11,12,12a-dodecahydro-1,6a,8,10a-tetramethyl-4H-1,4a-propano-2H-phenanthro[1,2-c]pyran-7-carboxylic acid] | 6.47 nM
CC(C)[C@@H](C)[C@@]1(C)CC[C@]2(C)[C@H]3CC[C@@H]4[C@@]5(COC[C@@]4(C)[C@@H](OC[C@](C)(N)C(C)(C)C)[C@H](n4ncnc4-c4ccc(CN(C)C)cc4)C5)C3=CC[C@@]2(C)[C@@H]1C(=O)O [Example 239, (1S,4aR,6aS,7R,8R,10aR,10bR,12aR,14R,15R)-15-[[(2R)-2-amino-2,3,3-trimethylbutyl]oxy]-14-[5-[4-[(dimethylamino)methyl]phenyl]-1H-1,2,4-triazol-1-yl]-8-[(1R)-1,2-dimethylpropyl]-1,6,6a,7,8,9,10,10a,10b,11,12,12a-dodecahydro-1,6a,8,10a-tetramethyl-4H-1,4a-propano-2H-phenanthro[1,2-c]pyran-7-carboxylic acid] | 0.127 nM
CCC(N)(CC)CO[C@H]1[C@H](n2ncnc2-c2ccncc2)C[C@@]23COC[C@]1(C)[C@@H]2CC[C@H]1C3=CC[C@@]2(C)[C@H](C(=O)O)[C@@](C)([C@H](C)C(C)C)CC[C@]12C [Example 241, (1S,4aR,6aS,7R,8R,10aR,10bR,12aR,14R,15R)-15-(2-amino-2-ethylbutoxy)-8-[(1R)-1,2-dimethylpropyl]-14-[5-(4-pyridinyl)-1H-1,2,4-triazol-1-yl]-1,6,6a,7,8,9,10,10a,10b,11,12,12a-dodecahydro-1,6a,8,10a-tetramethyl-4H-1,4a-propano-2H-phenanthro[1,2-c]pyran-7-carboxylic acid] | 1.4 nM
CC(C)[C@@H](C)[C@@]1(C)CC[C@]2(C)[C@H]3CC[C@@H]4[C@@]5(COC[C@@]4(C)[C@@H](OC[C@](C)(N)c4ccccc4)[C@H](n4ncnc4-c4ccncc4)C5)C3=CC[C@@]2(C)[C@@H]1C(=O)O [Example 245, (1S,4aR,6aS,7R,8R,10aR,10bR,12aR,14R,15R)-15-[[(2R)-2-amino-2-phenylpropyl]oxy]-8-[(1R)-1,2-dimethylpropyl]-14-[5-(4-pyridinyl)-1H-1,2,4-triazol-1-yl]-1,6,6a,7,8,9,10,10a,10b,11,12,12a-dodecahydro-1,6a,8,10a-tetramethyl-4H-1,4a-propano-2H-phenanthro[1,2-c]pyran-7-carboxylic acid] | 8 nM
CC(C)[C@@H](C)[C@@]1(C)CC[C@]2(C)[C@H]3CC[C@@H]4[C@@]5(COC[C@@]4(C)[C@@H](OC[C@](C)(N)C(C)(C)C)[C@H](n4ncnc4-c4ccc(C6=NCCN6)cc4)C5)C3=CC[C@@]2(C)[C@@H]1C(=O)O [Example 268, (1S,4aR,6aS,7R,8R,8R,10aR,10bR,12aR,14R,15R)-15-[[(2R)-2-amino-2,3,3-trimethylbutyl]oxy]-14-[5-[4-(4,5-dihydro-1H-imidazol-2-yl)phenyl]-1H-1,2,4-triazol-1-yl]-8-[(1R)-1,2-dimethylpropyl]-1,6,6a,7,8,9,10,10a,10b,11,12,12a-dodecahydro-1,6a,8,10a-tetramethyl-4H-1,4a-propano-2H-phenanthro[1,2-c]pyran-7-carboxylic acid] | 0.376 nM

The next lines start with the values.

IC50 | Structure (SMILES)
10.1 nM | CC(C)[C@@H](C)[C@@]1(C)CC[C@]2(C)[C@H]3CC[C@@H]4[C@@]5(COC[C@@]4(C)[C@@H](OC[C@](C)(N)C(C)C)[C@H](n4ncnc4-c4ccnc(-c6cccnc6)c4)C5)C3=CC[C@@]2(C)[C@@H]1C(=O)O [Example 272, (1S,4aR,6aS,7R,8R,10aR,10bR,12aR,14R,15R)-15-[[(2R)-2-amino-2,3-dimethylbutyl]oxy]-14-(5-[2,3′-bipyridin]-4-yl-1H-1,2,4-triazol-1-yl)-8-[(1R)-1,2-dimethylpropyl]-1,6,6a,7,8,9,10,10a,10b,11,12,12a-dodecahydro-1,6a,8,10a-tetramethyl-4H-1,4a-propano-2H-phenanthro[1,2-c]pyran-7-carboxylic acid]
2.52 nM | COC(=O)N1CCC(c2ncnn2[C@@H]2C[C@@]34COC[C@](C)([C@@H]3CC[C@H]3C4=CC[C@@]4(C)[C@H](C(=O)O)[C@@](C)([C@H](C)C(C)C)CC[C@]34C)[C@H]2OC[C@](C)(N)C(C)(C)C)CC1 [Example 276, (1S,4aR,6aS,7R,8R,10aR,10bR,12aR,14R,1SR)-15-[[(2R)-2-amino-2,3,3-trimethylbutyl]oxy]-8-[(1R)-1,2-dimethylpropyl]-14-[5-[1-(methoxycarbonyl)-4-piperidinyl]-1H-1,2,4-triazol-1-yl]-1,6,6a,7,8,9,10,10a,10b,11,12,12a-dodecahydro-1,6a,8,10a-tetramethyl-4H-1,4a-propano-2H-phenanthro[1,2-c]pyran-7-carboxylic acid]
4.07 nM | CC(C)[C@@H](C)[C@@]1(C)CC[C@]2(C)[C@H]3CC[C@@H]4[C@@]5(COC[C@@]4(C)[C@@H](OC[C@](C)(N)C(C)(C)C)[C@H](n4ncnc4C4CCOCC4)C5)C3=CC[C@@]2(C)[C@@H]1C(=O)O [Example 285, (1S,4aR,6aS,7R,8R,10aR,10bR,12aR,14R,15R)-15-[[(2R)-2-amino-2,3,3-trimethylbutyl]oxy]-8-[(1R)-1,2-dimethylpropyl]-14-[5-(tetrahydro-2H-pyran-4-yl)-1H-1,2,4-triazol-1-yl]-1,6,6a,7,8,9,10,10a,10b,11,12,12a-dodecahydro-1,6a,8,10a-tetramethyl-4H-1,4a-propano-2H-phenanthro[1,2-c]pyran-7-carboxylic acid]
54.9 nM | CC(C)[C@@H](C)[C@@]1(C)CC[C@]2(C)[C@H]3CC[C@@H]4[C@@]5(COC[C@@]4(C)[C@@H](OC[C@](C)(N)C(C)C)[C@H](n4cccn4)C5)C3=CC[C@@]2(C)[C@@H]1C(=O)O [Example 291, (1S,4aR,6aS,7R,8R,10aR,10bR,12aR,14R,15R)-15-[[(2R)-2-amino-2,3-dimethylbutyl]oxy]-8-[(1R)-1,2-dimethylpropyl]-14-(1H-pyrazol-1-yl)-1,6,6a,7,8,9,10,10a,10b,11,12,12a-dodecahydro-1,6a,8,10a-tetramethyl-4H-1,4a-propano-2H-phenanthro[1,2-c]pyran-7-carboxylic acid]

— patent US8188085B2, “Antifungal agents” (Merck Sharp & Dohme Corp., priority 2008, dated 2012)
